Laboratory results published in patent US7253175B2, “Method for treating athlete's foot” (priority 2003, dated 2007).
Structures can show the parent of a compound that is named as a salt.

Tested on: athlete's foot (fungal infection of toe nails and skin of the feet)
Experiment: Treatment of a patient with athlete's foot (case example)
Type: in vivo, human
Description: Fungal infections, including tineapedis (fungal infections on the feet), tineamanus (fungal infections on the hands) and tineacorporis (fungal infections on the body), are diagnosed by methods or tests commonly conducted by a person of ordinary skill in the art. The common symptoms of such disease are described above. In the case of fungal infection on nails such as finger nails and toenails, the infected areas usually show thickening of the nails with white spots, while if the skin is infected, itching scaling, redness and/or blisters will appear. A laboratory test may be conducted by culturing a skin sample or nail sample in the infected area in an appropriate medium to observe the growth of fungi. The infections may also be identified by scraping the infected skin or nail and examining the such specimen under a microscope in the presence of potassium hydroxide, which assists to determine the presence of fungi.
A patient suffered from athlete's foot for four years. The patients toe nails had became whitening, thickening and cracking due to the infection. […] The patient was reported to experienced pain due to the thickening and cracking of the toe nails the swelling of the skin. […]

`CC(C)[C@H](N)C(=O)OCCOCn1cnc2c(=O)[nH]c(N)nc21` [Valtrex, L-valine, 2-[(2-amino-1,6-dihydro-6-oxo-9H-purin-9-yl)methoxy]ethyl ester, monhydrochloride] was tested, and the “laboratory test for fungal infections on the patient's toe nails and skin” value (after daily dosage of three grams divided into three times for seven days) was “no longer fungal infections” and the “symptoms of the patient's athlete's foot at the end of treatment” value (patient, about 230 pounds, daily dosage of three grams divided into three times for seven days) was “completely disappear”.
